Structures are written as SMILES. Like-named read-outs stand apart in the source and are kept apart here.

The series deals with WiDr cells. Kind of series: Cell death rate by flow cytometry (PI DNA content, EPICS XL). It counts as cell-based, human. The conditions noted are these: for Cell death rate (%): WiDr cells. How it is done:
DMEM medium containing 10% fetal bovine serum was placed in plastic culture dishes having a diameter of 6 cm. Then, WiDr cells (obtained from HSRRB), which were human colon carcinoma cells, were inoculated thereinto so as to give a density of 2.0 x 10^5 cells/3 mL. These culture dishes were incubated at 37°C for 48 hours. Moreover, 1/1000 volume of PD98059 (with a final concentration of 50 µmol/L) or solvent (DMSO) was added thereto, followed by incubation for 12 hours. Thereafter, 1/1000 volume of TZT-1027 (with a final concentration of 10 nmol/L) or solvent (a lactic acid buffer) was added thereto. Where vincristine was used as the microtubule-interfering agent, 1/1000 volume of vincristine sulfate (with a final concentration of 100 nmol/L) or solvent (DMSO) was added thereto. Twenty-four (24), 48, 72 or 96 hours after the addition of TZT-1027, vincristine or solvent, cells were collected and worked up according to the following procedure. With respect to a solvent control group and a group treated with PD98059 alone, cells were similarly collected and worked up after 96 hours' incubation.
First of all, all of the culture medium was transferred to a centrifuge tube. The remaining cells were suspended by adding 1 mL of a 0.05% trypsin/phosphate-buffered physiological saline (PBS)-EDTA solution to the culture dish and incubating it at 37°C for 5 minutes, and combined with the above culture medium. The centrifuge tube was centrifuged at 1,500 rpm for 5 minutes. Then, the precipitate was resuspended in 1 mL of PBS, transferred to a light-shielding microtube, and centrifuged at 2,500 rpm for 5 minutes. After the precipitate was suspended in 60 µL of PBS, 140 µL of 100% ethanol was added thereto and the resulting suspension was stirred and allowed to stand at -20°C overnight or longer. Moreover, the suspension was centrifuged at 2,500 rpm for 5 minutes, and 100 µL of a phosphate-citric acid buffer (0.2M […] : 0.1M citric acid = 24:1) was added to the precipitate, followed by stirring (at 500 rpm) at room temperature for 30 minutes. After suspension was centrifuged at 2,500 rpm for 5 minutes, 100 µL of PBS and 1 µL of an RNase solution (10 mg/mL (PBS); obtained from SIGMA) was added to the precipitate, followed by incubation at 37°C for 30 minutes. Thereafter, 880 µL of PBS and 20 µL of a propidium iodide (hereinafter referred to as "PI") solution (1 mg/mL (PBS); obtained from Wako Pure Chemical Industries Ltd.) were added thereto and reacted at room temperature for 30 minutes with stirring. The resulting reaction mixture was allowed to stand in the dark under cooling with ice until it was used for measurement.
The cell death rate was measured and analyzed by means of an EPICS XL system (manufactured by COULTER). Prior to analysis, the EPICS XL system was checked by means of DNAcheck (manufactured by COULTER).
Next, a protocol used for calculating the cell death rate by using the DNA content as a parameter was constructed. In this protocol, FS (forward scatter), SS (side scatter) and FL3 (PI fluorescence) were selected as parameters, and the number of analyzed cells was 30,000. Furthermore, by measuring a control sample of cells to be actually measured, the sensitivity of the detector and regions were preset with consideration for each parameter. Measurements were made by pipetting a sample at several times, transferring it into an exclusive tube, and setting it in the main unit of the EPICS XL system. The cell death rate was calculated by use of histograms in the protocol, which were constructed by removing doublets and triplets from data incorporating dead cells.
In general terms: Flow cytometry measures light scatter and fluorescence of single cells or particles in a stream.

The mark [1] stands for this setting: Homo sapiens, WiDr, 96 h, read-out: Cell death rate (%).
The mark [2] stands for this setting: Homo sapiens, WiDr, 24 h, read-out: Cell death rate (%).
The mark [3] stands for this setting: Homo sapiens, WiDr, 48 h, read-out: Cell death rate (%).

As to `COc1cccc(-c2cc(=O)c3ccccc3o2)c1N` [PD98059, 2-(2-amino-3-methoxyphenyl)-4H-chromen-4-one], under setting [1], the cytotoxicity at 50 µM is 8.9%.
In the case of `CC[C@H](C)[C@@H]([C@@H](CC(=O)N1CCC[C@H]1[C@H](OC)[C@@H](C)C(=O)NCCc1ccccc1)OC)N(C)C(=O)[C@@H](NC(=O)[C@H](C(C)C)N(C)C)C(C)C` [TZT-1027, N^2-(N,N-Dimethyl-L-valyl)-N-[(1S,2R)-2-methoxy-4-[(2S)-2-[(1R,2R)-1-methoxy-2-methyl-3-oxo-3-[(2-phenylethyl)-amino]propyl]-1-pyrrolidinyl]-1-[(S)-1-methylpropyl]-4-oxobutyl]-N-methyl-L-valinamide], the cytotoxicity at 0.01 µM came to 3.8% under setting [2], 9.2% under setting [3] and 23.3% under setting [1]. Besides, the “Cell death rate (%)” value by setting is: (TZT-1027 10 nmol/L combined with PD98059 50 µmol/L (added 12 hours before), time 24) 10.5%; (TZT-1027 10 nmol/L combined with PD98059 50 µmol/L (added 12 hours before), time 48) 35.9%; (TZT-1027 10 nmol/L combined with PD98059 50 µmol/L (added 12 hours before), time 96) 48.1%.
With `CC[C@]1(O)C[C@H]2CN(CCc3c([nH]c4ccccc34)[C@@](C(=O)OC)(c3cc4c(cc3OC)N(C=O)[C@H]3[C@@](O)(C(=O)OC)[C@H](OC(C)=O)[C@]5(CC)C=CCN6CC[C@]43[C@@H]65)C2)C1` [Vincristine, vincristine], the cytotoxicity at 0.1 µM under setting [2] stood at 4.5%; the cytotoxicity at 0.1 µM under setting [3] came to 8.4%; the cytotoxicity at 0.1 µM (Homo sapiens, WiDr, 72 h, read-out: Cell death rate (%)) was determined as 23.3%. Also, the “Cell death rate (%)” value by setting is: (Vincristine 100 nmol/L combined with PD98059 50 µmol/L (added 12 hours before), time 24) 12.1%; (Vincristine 100 nmol/L combined with PD98059 50 µmol/L (added 12 hours before), time 48) 37.4%; (Vincristine 100 nmol/L combined with PD98059 50 µmol/L (added 12 hours before), time 72) 58.7%.
